Reference: publication PMC4977052, “On the Utility of ToxCast™ and ToxPi as Methods for Identifying New Obesogens” (Environmental Health Perspectives, 2016)
Like-named read-outs stand apart in the source and are kept apart here.

How the values were obtained:
PPARγ [1] = conditions: cited from earlier work
GAL4-mPPARγ = target: T1, GAL4-mPPARγ (Mus musculus, UniProt P37238); assay: GAL4-mPPARγ activation, transient transfection luciferase reporter in COS7 cells; type: cell-based; conditions: for Activation COS7 (result in words), ToxPi chemicals: PPARγ or RXRα activation assays (Table 2)
T1 construct: expressed in transfected cells; host or cells: COS7
T1 sequence (P37238 with tags, fused parts or gaps limits assumed): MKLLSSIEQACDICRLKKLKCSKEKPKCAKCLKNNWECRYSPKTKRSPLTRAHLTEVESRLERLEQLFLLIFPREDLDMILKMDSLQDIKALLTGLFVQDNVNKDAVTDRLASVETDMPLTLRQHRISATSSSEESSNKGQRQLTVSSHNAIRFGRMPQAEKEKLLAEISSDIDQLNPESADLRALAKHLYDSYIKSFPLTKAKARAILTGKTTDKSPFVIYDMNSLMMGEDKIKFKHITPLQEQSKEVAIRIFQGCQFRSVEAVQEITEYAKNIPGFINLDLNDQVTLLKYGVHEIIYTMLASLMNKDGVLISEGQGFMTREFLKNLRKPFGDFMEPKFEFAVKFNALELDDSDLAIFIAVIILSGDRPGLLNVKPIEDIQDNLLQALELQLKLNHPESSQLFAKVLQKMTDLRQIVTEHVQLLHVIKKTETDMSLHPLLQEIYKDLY
Experimental: pCMX-Gal4, pCMX-Gal4-mPPARγ, and pCMX-Gal4-hRXRα were previously described ([Grün et al. 2006]). Transient transfections were performed in COS7 cells as described ([Chamorro-García et al. 2012]). Briefly, COS7 cells were seeded at 15,000 cells per well in 96-well tissue culture plates in 10% calf bovine serum. The following day, cells were transfected in Opti-MEM at ~ 90% confluency. One microgram of CMX-GAL4 effector plasmid was co-transfected with 5 μg tk-(MH100)4-luciferase reporter and 5 μg of CMX-β-galactosidase transfection control plasmids in Opti-MEM® using Lipofectamine® 2000 reagent (Invitrogen™ Life Technologies, Carlsbad, CA, USA), following the manufacturer’s recommended protocol. All chemicals were solvated in dimethyl sulfoxide (DMSO). After overnight incubation, the medium was replaced with Dulbecco’s Modified Eagle Medium (DMEM; HyClone, Logan, UT, USA), 10% resin charcoal stripped fetal bovine serum (FBS) plus ligands at concentrations indicated in the figure legends for an additional 24 hr. DMSO concentration was maintained at 0.05% across all chemical treatments. Cells were lysed and assayed for luciferase and β-galactosidase activity as previously described ([Forman et al. 1995]). All transfections were performed in triplicate and reproduced in multiple experiments. Data are reported as fold induction or reduction over vehicle ([…]) controls ± SEM (standard error of the mean) using standard propagation of error ([Bevington and Robinson 2003]). […] The EC50, EC10, IC50, and IC10 values from NCGC and ToxCast™ are reported from gain AC50 and AC10 values in the ToxCast™ 2014 release ([Filer et al. 2014]).
Figure 1 ToxCast™ Chemical Activity on PPARγ. The ability of a graded dose series of ToxCast™ chemicals to (A) activate or (B) antagonize GAL4-mPPARγ was tested in transiently transfected COS7 cells. (A, B) Data points are averages of triplicate transfections (three biological replicates). […] Data are depicted as (A) fold induction or (B) reduction over vehicle (0.05% DMSO) controls ± SEM. (A) ToxCast™ chemicals were tested in 3-fold serial dilutions from 100 μM through 0.137 μM, with the final data point being 0.05% DMSO. Rosiglitazone serves as a positive control activator. (B) ToxCast™ chemicals were tested in 3-fold serial dilutions from 100 μM, in competition with 50 nM rosiglitazone (Rosi). […] (C) EC50, EC10, IC50, and IC10 values calculated from A and B are reported and compared to commercial assays (see Figure S1). Note: ATG, Attagene GAL-PPARγ activation assay; NCGC, GeneBLAzer® agonist (EC values) or antagonist (IC values) assays. Triphenyltin was previously published ([Kanayama et al. 2005]).
Figure 4 ToxPi Chemical Activity on PPARγ and RXRα. The ability of a graded dose series of ToxPi chemicals to activate (A) GAL4-mPPARγ or (B) GAL4-hRXRα was tested in transiently transfected COS7 cells. (A, B) Data points are averages of triplicate transfections (three biological replicates). […] ToxPi chemicals were tested in 3-fold serial dilutions from 100 μM through 0.137 μM, with the final data point being 0.05% DMSO. Data are depicted as fold induction over vehicle (0.05% DMSO) controls ± SEM. (A) Rosiglitazone serves as a positive control activator for GAL4-mPPARγ. (B) LG100268 (2-[1-(3,5,5,8,8-Pentamethyl-5,6,7,8-tetrahydro-2-naphthyl)cyclopropyl]pyridine-5-carboxylic acid) serves as a positive control activator for GAL4-hRXRα. (C) EC50 and EC10 values calculated from A and B are reported and compared to other assays (see Figure S1). ATG, Attagene GAL-PPARγ or GAL-RXRα activation assay; NCGC, GeneBLAzer® GAL-PPARγ or GAL-RXRα activation assays. Triphenyltin was previously published ([Kanayama et al. 2005]).

PPARγ [2] = conditions: ToxCast 2014 release, ref Filer et al. 2014, cited from earlier work
Human PPARγ = conditions: cited from earlier work
3T3-L1 preadipocytes = assay: 3T3-L1 adipogenesis assay (lipid accumulation, adipogenic gene expression); type: cell-based; conditions: 0.02-20 μM, 5 days after MDI induction
Experimental: 3T3-L1 cells (ATCC) were maintained in high-glucose DMEM supplemented with 10% fetal bovine serum, 2 mM L-glutamine, 50 IU/mL penicillin, and 50 μg/mL streptomycin. A total of 2 × 10^4 cells per well were seeded in 12-well plates. After 48 hr, cells were exposed to the adipogenic cocktail MDI (500 μM isobutylmethylxanthine, 0.25 nM dexamethasone and 5 μg/mL insulin), 8 μg/mL biotin and 8 μg/mL pantothenate for 2 days. Induction media was removed and cells were exposed to test chemicals during 5 days, replacing the media every 2 days. Rosiglitazone (ROSI) and tributyltin (TBT) were used as positive controls at 100 nM and 50 nM final concentrations, respectively. All ToxCast™ chemicals were tested at 0.02, 0.2, 2, and 20 μM, and DMSO concentration was maintained at 0.1% across all treatments. If the chemical was toxic at 20 μM, we repeated the experiment at 10 μM.
Cells were either fixed in 3.7% formaldehyde in phosphate-buffered saline (PBS) for 30 min at room temperature (RT) for lipid quantitation, or homogenized in TriPure (Roche, Mannheim, Germany) for gene expression analysis. For lipid quantitation, fixed cells were washed twice with PBS and maintained in PBS overnight at 4°C to release residual phenol red. Background of cells were measured prior to staining. Cells were stained with 1 μg/mL Nile red (CAS No. 7385-67-3) (to detect lipid accumulation) and 1 μg/mL Hoechst 33342 (ThermoFisher Scientific) (to detect nuclei as a surrogate for cell number) in PBS for 15 min in the dark at RT and washed twice with PBS. […] Background values of Hoechst and Nile red were subtracted from the RFUs after staining and the ratio RFUNile Red:RFUHoechst was calculated. Data are represented as mean ± SEM. Total RNA was isolated using TriPure (Roche) as recommended by the manufacturer. Reverse transcription and quantitative real-time RT-PCR (QPCR) were performed using Transcriptor RT and SYBR® Green Master Mix (Roche). cDNA was quantitated in a LightCycler® 480 System (Roche Diagnostics, Basel, Switzerland) using primer sets listed in Table S4. Each primer set amplified a single band as determined by gel electrophoresis and melting curve analysis. QPCR data were analyzed using the 2^ΔΔCt method ([Livak and Schmittgen 2001]) relative to ribosomal protein 36b4, normalizing to 0.1% DMSO vehicle. Error bars represent the SEM from four to six biological replicates calculated using standard propagation of error ([Bevington and Robinson 2003]).

[3] = ToxCast 2014 release, ref Filer et al. 2014, read-out: Attagene AC50 (panel A, w/o Z-Score Correction ranking)
[4] = read-out: Tox21/NCGC AC50 (panel A)
[5] = direct binding, ToxCast 2014 release, ref Filer et al. 2014, read-out: NovaScreen AC50 (panel A)
[6] = ToxCast 2014 release, ref Filer et al. 2014, read-out: Attagene AC50 (panel B, with Z-Score Correction ranking)
[7] = direct binding, ToxCast 2014 release, ref Filer et al. 2014, read-out: NovaScreen AC50 (panel B)
[8] = read-out: Tox21/NCGC AC50 (panel B)

Row | SMILES | AC50 (PPARγ [1]; [3]) | AC50 (PPARγ [2]; [4]) | AC50 (Human PPARγ; [5]) | AC50 (PPARγ [1]; [6]) | AC50 (Human PPARγ; [7]) | other results
1 | Oc1cc(Cl)ccc1Oc1ccc(Cl)cc1Cl [Triclosan] | 8.6 µM | 25.8 µM | 7.1 µM |  |  | Activation of GAL4-PPARγ (text) (GAL4-mPPARγ; COS7, 100 μM through 0.137 μM): inactive
2 | CCCCOC(=O)C(C)Oc1ccc(Oc2ccc(C(F)(F)F)cn2)cc1 (stereo not shown) [Fluazifop-butyl] |  |  |  | 2.8 µM | 0.7 µM | 
3 | CCCCC(O)(Cn1cncn1)c1ccc(Cl)cc1Cl (stereo not shown) [Hexaconazole] | 1.2 µM | 0.1 µM | 0.3 µM |  |  | 
4 | CCNc1nc(Cl)nc(NCC)n1 [Simazine] |  |  |  | 116 µM | 1.5 µM | 
5 | N#Cc1nn(-c2c(Cl)cc(C(F)(F)F)cc2Cl)c(N)c1[S+]([O-])C(F)(F)F (stereo not shown) [Fipronil] | 39.3 µM |  |  |  |  | 
6 | N#CSCSC#N [Methylene dithiocyanate] |  |  |  |  |  | Activation COS7 (result in words), ToxPi chemicals (GAL4-mPPARγ; Cos-7 transient transfection): Inactive; Adipogenesis 3T3-L1 (result in words) (3T3-L1 preadipocytes): Negative
7 | CCOc1nc(F)cc2nc(S(=O)(=O)Nc3c(Cl)cccc3Cl)nn12 [Diclosulam] |  |  |  | 26.3 µM |  | AC50 (PPARγ [2]; [8]): 2.9 µM
8 | Cc1cc(Cl)ccc1OCC(=O)O [MCPA] | 33.8 µM | 253 µM | 0.1 µM | 33.8 µM | 0.1 µM | AC50 (PPARγ [2]; [8]): 253 µM
9 | Oc1ccccc1-c1ccccc1 [2-Phenylphenol] | 0.1 µM |  | 1.1 µM | 0.1 µM | 1.1 µM | 
10 | CC1=NNC(=O)N(/N=C/c2cccnc2)C1 [Pymetrozine] |  |  |  |  |  | Activation COS7 (result in words), ToxPi chemicals (GAL4-mPPARγ; Cos-7 transient transfection): Inactive; Adipogenesis 3T3-L1 (result in words) (3T3-L1 preadipocytes): Positive; Adipogenesis 3T3-L1 (result in words) (3T3-L1 preadipocytes; listed as pymetrozine): promoted adipogenesis
11 | O=C(O)c1c(Cl)ccc2cc(Cl)cnc12 [Quinclorac] |  |  |  | 0.03 µM | 0.0002 µM | 
12 | CCCCOC(=O)c1ccccc1C(=O)O [MBP] |  |  |  | 18.2 µM | 0.1 µM | 
13 | Cc1ccn2nc(S(=O)(=O)Nc3c(F)cccc3F)nc2n1 [Flumetsulam] |  |  |  |  |  | Activation COS7 (result in words), ToxPi chemicals (GAL4-mPPARγ; Cos-7 transient transfection): Inactive; Adipogenesis 3T3-L1 (result in words) (3T3-L1 preadipocytes): Negative
14 | O=c1ccc(=O)[nH][nH]1 [Maleic hydrazide] |  |  |  |  |  | Activation COS7 (result in words), ToxPi chemicals (GAL4-mPPARγ; Cos-7 transient transfection): Inactive; Adipogenesis 3T3-L1 (result in words) (3T3-L1 preadipocytes): Negative
15 | CC(C)NC(=O)N1CC(=O)N(c2cc(Cl)cc(Cl)c2)C1=O [Iprodione] | 20.9 µM | 45.5 µM | 2.4 µM | 20.9 µM | 2.4 µM | AC50 (PPARγ [2]; [8]): 45.5 µM
16 | CCCSP(=O)(OCC)SCCC [Ethoprop] |  |  |  |  |  | AC50 (PPARγ [1]; read-out: Attagene AC50 (panel B, with Z-Score Correction ranking)): 114 µM; AC50 (Human PPARγ; read-out: NovaScreen AC50 (panel B)): 3.9 µM
17 | O=C(O)CCCOc1ccc(Cl)cc1Cl [2,4-DB] |  |  |  | 33.4 µM |  | AC50 (PPARγ [2]; [8]): 16.7 µM
18 | CCNc1nc(NC(C)C)nc(SC)n1 [Ametryn] | 15.1 µM | 10.2 µM | 31.8 µM |  |  | 
19 | O=C(O)c1cc(Oc2ccc(C(F)(F)F)cc2Cl)ccc1[N+](=O)[O-] [Acifluorfen] |  |  |  | 37.1 µM | 13.5 µM | 
21 | O=C(O)COc1nc(Cl)c(Cl)cc1Cl [Triclopyr] | 54.7 µM | 41.5 µM | 2.1 µM | 54.7 µM | 2.1 µM | AC50 (PPARγ [2]; [8]): 41.5 µM
22 | CCOP(=S)(OCC)SCCSCC [Disulfoton] |  |  |  | 81.8 µM | 1.6 µM | 
23 | CCSC(=O)N1CCCCCC1 [Molinate] |  |  |  | 41.3 µM | 0.1 µM | 
24 | COP(=O)(OC)C(O)C(Cl)(Cl)Cl (stereo not shown) [Trichlorfon] | 58.4 µM | 0.05 µM |  |  |  | 
25 | CC(C)Oc1cccc(NC(=O)c2ccccc2C(F)(F)F)c1 [Flutolanil] | 8.5 µM | 34.1 µM | 10.3 µM |  |  | 
26 | COc1nn(CSP(=S)(OC)OC)c(=O)s1 [Methidathion] | 30.6 µM |  | 0.1 µM | 30.6 µM | 0.1 µM | 
27 | C=CCC1=C(C)[C@@H](OC(=O)[C@@H]2[C@@H](C=C(C)C)C2(C)C)CC1=O [S-Bioallethrin] |  |  |  |  |  | AC50 (PPARγ [1]; PPARγ, NA = not active, ref Filer et al. 2014, read-out: ATG Agonist AC50, 2014 Release): 9.2 µM; AC50 (PPARγ [1]; PPARγ, NA = not active, ref Knudsen et al. 2011, read-out: ATG Agonist AC50, 2011 Release): 9.2 µM; Activation COS7 (result in words), ToxCast PPARγ list (GAL4-mPPARγ; Cos-7 transient transfection, PPARγ activation or antagonism assays (Table 1, Table S6)): Inactive
28 | CCOP(=O)(NC(C)C)Oc1ccc(SC)c(C)c1 (stereo not shown) [Fenamiphos] | 35.1 µM | 14.7 µM | 21.2 µM | 35.1 µM | 21.2 µM | AC50 (PPARγ [2]; [8]): 14.7 µM
29 | CC(C)=CC1C(C(=O)OCN2C(=O)C3=C(CCCC3)C2=O)C1(C)C (stereo not shown) [Tetramethrin] | 0.02 µM | 21.6 µM | 0.3 µM |  |  | 
30 | CS(=O)(=O)c1cc(C(F)(F)F)ccc1C(=O)c1cnoc1C1CC1 [Isoxaflutole] |  |  |  | 10.4 µM |  | AC50 (PPARγ [2]; [8]): 26.4 µM
